Assays:
[1] = target: T1, recombinant full-length human GLS2 (Homo sapiens, UniProt Q9UI32); test: Real-time recombinant glutaminase activity assay, GLS2; assay type: biochemical; conditions: different concentrations
T1 construct: GLS2 (residues 38 to 602) in E. coli; inferred from pQE80 vector and Ni-NTA/imidazole purification; made in house; host or cells: E. coli BL21(DE3)
T1 sequence (Q9UI32 38-602): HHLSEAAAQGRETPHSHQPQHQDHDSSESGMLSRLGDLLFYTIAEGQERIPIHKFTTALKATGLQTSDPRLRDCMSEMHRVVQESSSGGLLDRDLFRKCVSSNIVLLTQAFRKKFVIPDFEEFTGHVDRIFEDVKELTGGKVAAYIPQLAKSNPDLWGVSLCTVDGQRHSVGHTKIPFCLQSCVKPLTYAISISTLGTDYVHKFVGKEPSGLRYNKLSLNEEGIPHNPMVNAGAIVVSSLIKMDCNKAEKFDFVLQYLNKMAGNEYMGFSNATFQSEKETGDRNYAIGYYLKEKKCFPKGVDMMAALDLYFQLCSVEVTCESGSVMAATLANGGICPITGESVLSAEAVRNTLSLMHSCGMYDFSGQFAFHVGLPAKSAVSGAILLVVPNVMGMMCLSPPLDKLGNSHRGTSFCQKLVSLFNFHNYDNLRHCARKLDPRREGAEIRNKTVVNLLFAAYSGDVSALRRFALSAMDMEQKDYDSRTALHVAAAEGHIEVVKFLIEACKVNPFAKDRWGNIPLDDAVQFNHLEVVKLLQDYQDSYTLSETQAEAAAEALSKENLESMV
Experimental: Real-time monitoring of glutaminase activity through NADH production was performed on a Cary Eclipse fluorescence spectrometer. The excitation and emission wavelengths were set at 340 nm and 460 nm, respectively. To a 1 ml cuvette, 900 μl of assay buffer was added, followed by 10 μl of GDH, 40 μl of 50 mM NAD and 20 μl of either DMSO or various dilutions of 968. Then, 100 μl of either 100 nM GAC or 500 nM GLS2 was added to this mixture and the fluorescence emission was monitored in real time. After 30 s, 200 μl of a mixture of glutamine and K2HPO4 was added such that the final concentrations of K2HPO4 and glutamine were 100 mM and 20 mM, respectively. The initial velocity of glutamine hydrolysis was obtained from the slopes of the linear portion of the kinetic curve.
Recombinant GAC and GLS2 were expressed in E. coli as described in Huang et al., “Characterization of the Interactions of Potent Allosteric Inhibitors with Glutaminase C, a Key Enzyme in Cancer Cell Glutamine Metabolism,” J. Biol. Chem. 293:3535-3545 (2018), which is hereby incorporated by reference in its entirety. Briefly, E. coli strain BL21(DE3) (Thermo Fisher Scientific) were transformed with vector pQE80-GAC-72-598 or with pQE80-GLS2-38-602 to express the processed forms of GAC and GLS2, respectively. For both constructs, expression was induced with 0.3 mM IPTG for 20 hours at 18° C., and cells were then harvested by centrifugation and lysed by sonication in binding buffer (500 mM NaCl, 50 mM Tris-HCl pH 8.5, 10 mM imidazole, 5 mM β-mercaptoethanol, 1 mM benzamidine chloride). The lysate was centrifuged, and the supernatant applied to a Ni-NTA column which was then washed with 100 column volumes of binding buffer followed by 10 volumes of wash buffer (500 mM NaCl, 50 mM Tris-HCl pH 8.5, 40 mM imidazole, 5 mM β-mercaptoethanol, 1 mM benzamidine chloride). Protein was eluted with 5 column volumes of elution buffer (500 mM NaCl, 300 mM imidazole-HCl pH 7.5, 5 mM β-mercaptoethanol, 1 mM benzamidine chloride). The eluate was centrifugally concentrated and then further purified by FPLC using a HiLoad 16/600 Superdex 200 column (GE Healthcare) with 150 mM NaCl, 5 mM Tris-HCl pH 7.5.

[2] = tested on: BT-474 cells; test: 6-day cell proliferation assay, BT-474; assay type: cell-based, human; conditions: Homo sapiens, 144 h; BT-474, proliferation over 6 days
Experimental: (§1) Human breast cancer cell lines MCF7, BT-474, T-47D, MDA-MB-453, MDA-MB-231, Hs 578T, HCC38, SK-BR-3, and DU4475 were purchased from the American Type Culture Collection (ATCC) and no additional cell authentication was performed. The TSE human breast cancer cell line was supplied by Dr. Steven Abcouwer (University of Michigan). All breast cancer cells were cultured at 37° C. under a 5% CO2 atmosphere in RPMI 1640 medium containing 2 mM glutamine (Gibco) and supplemented with 10% fetal bovine serum (FBS) (Gibco). The 293T cell line (ATCC) used for generating lentivirus particles was cultured as above but using DMEM, high glucose (Gibco).
(§2) Culture medium was added to 12-well plates (1 ml/well) and wells were seeded with cells at Day 0 as follows. MCF7, T-47D, BT-474, HCC38 cells: […] cells/well. MDA-MB-453 and MDA-MB-231 cells: 1×10^4 cells/well. TSE and Hs 578T cells: 0.3×10^4 cells/well. After 16 hours, culture medium was replaced with fresh medium supplemented with appropriate concentrations of inhibitors and was subsequently replaced every 48 hours. On Day 6 cells were trypsinized and suspended in an appropriate volume of culture medium, and the total number of cells per well was determined using a hemocytometer or a TC20 Automated Cell Counter (Bio-Rad).

[3] = tested on: TSE cells; test: 6-day cell proliferation assay, TSE; assay type: cell-based, human; conditions: Homo sapiens, 144 h; TSE, proliferation over 6 days
Experimental: as §1, §2

[4] = tested on: T-47D cells; test: 6-day cell proliferation assay, T-47D; assay type: cell-based, human; conditions: Homo sapiens, T47D, 144 h, proliferation over 6 days
Experimental: as §1, §2

[5] = tested on: MDA-MB-231 cells; test: 6-day cell proliferation assay, MDA-MB-231; assay type: cell-based, human; conditions: Homo sapiens, 144 h; MDA-MB-231, proliferation over 6 days
Experimental: as §1, §2

[6] = tested on: MCF7 cells; test: 6-day cell proliferation assay, MCF7; assay type: cell-based, human; conditions: Homo sapiens, 144 h; MCF7, proliferation over 6 days
Experimental: as §1, §2

[7] = tested on: Hs 578T cells; test: 6-day cell proliferation assay, Hs 578T; assay type: cell-based, human; conditions: Homo sapiens, 144 h, proliferation over 6 days
Experimental: as §1, §2

[8] = tested on: HCC38 cells; test: 6-day cell proliferation assay, HCC38; assay type: cell-based, human; conditions: Homo sapiens, 144 h; HCC38, proliferation over 6 days
Experimental: as §1, §2

[9] = tested on: MDA-MB-453 cells; test: 6-day cell proliferation assay, MDA-MB-453; assay type: cell-based, human; conditions: Homo sapiens, 144 h; MDA-MB-453, proliferation over 6 days
Experimental: as §1, §2

[10] = tested on: breast cancer cell lines; conditions: previously reported (Huang et al. 2018); cited from earlier work
[11] = tested on: GLS2 protein levels in TSE cells; test: Western blot of GLS2 in TSE cells treated with hypomethylating agent; assay type: cell-based, human; conditions: 48 hours
Experimental: Cells, or fractionated mitochondria and nuclei, were lysed with ice-cold lysis buffer (50 mM HEPES pH 8.0, 150 mM NaCl, 25 mM NaF, 1% (v/v) Triton X-100, 1 mM MgCl2, 50 mM β-glycerophosphate, 30 μg/ml leupeptin, 5 μg/ml aprotinin), and insoluble debris cleared by centrifugation at 4° C. Protein concentrations were determined by Bradford assay (Bio-Rad), and lysate was then boiled for 10 min in reducing SDS-sample buffer. Lysate proteins (20 μg total protein/lane, except for the cell fractionation experiment in which 5 μg total protein/lane was used) were then resolved on Novex 12% Tris-Glycine Mini Gels (Thermo Fisher Scientific) and transferred to PVDF membrane (PerkinElmer). Membranes were blocked in 7% BSA in Tris-Buffered Saline plus 0.05% TWEEN 20 (TBST) for 1 hour at room temperature and probed overnight at 4° C. in primary antibody solution in TBST (see Table 3 for antibody dilutions). They were then washed with TBST and incubated in TBST containing 25% (v/v) non-fat dry milk powder and anti-Rabbit or anti-Mouse secondary antibody (1:2500) for 1 hour. Finally, membranes were washed in TBST, and imaged using Western Lightning Plus-ECL (PerkinElmer) and HyBlot ES autoradiography film (Denville Scientific Inc.).

In the case of `O=C(Cc1cccc(OC(F)(F)F)c1)Nc1ccc(CCCCc2nnc(NC(=O)Cc3ccccn3)s2)nn1` [CB-839], the “inhibition of recombinant GLS2 activity” value [1] is reported as “resistance”, the EC50 [2] is reported as over 1000 nM and the EC50 [3] is reported as 41 nM. The EC50 [4] was over 1000 nM, the EC50 [5] was 19 nM and the EC50 [6] was over 1000 nM. The EC50 [7] was 31 nM, the EC50 [8] was 49 nM and the EC50 [9] was over 1000 nM.

In the case of `O=C(Cc1ccccc1)Nc1nnc(NC2CCN(c3nnc(NC(=O)Cc4ccccc4)s3)CC2)s1` [UPGL00004], the “selectivity profile, basal- versus luminal-subtype cells” value [10] is listed as “same selectivity profile”.

For `Nc1ncn([C@@H]2O[C@H](CO)[C@@H](O)[C@H]2O)c(=O)n1` [azacitidine], the GLS2 protein levels [11] was “increased”.
